Assay results published in patent US9855204B1, “Methods and compositions for treating androgenetic alopecia” (priority 2015, dated 2018).

Legend:
[1] = system: Androgenetic Alopecia Males; assay: Androgenetic Alopecia Males Arm 1, Global Photographic Assessment (Omnia System); type: in vivo, human; conditions: 2 mg once daily, 6 months, 20 treated
From the text: (§1) The description of the experiments and their results are presented in the 4 tables below. In these experiments the subjects self-administered CEP for at least 6 months.

[2] = system: Androgenetic Alopecia Males; assay: Androgenetic Alopecia Males Arm 2, Global Photographic Assessment (Omnia System); type: in vivo, human; conditions: 2 mg once every other day, 6 months, 20 treated
From the text: as §1

[3] = system: Androgenic Alopecia Females; assay: Androgenic Alopecia Females, Global Photographic Assessment (Omnia System); type: in vivo, human; conditions: 2 mg daily, 6 months, 15 treated
From the text: as §1

androgenetic alopecia = assay: CEP in subjects with androgenetic alopecia, overall findings of the experiments; type: in vivo, human; conditions: inferred from benefit in users who skipped daily doses
From the text: It is effective when dosed once daily or even once every other day, both of which make compliance much easier than dividing the doses into greater frequency. It is effective without regard to consumption following meals.
as §1
Some users were not perfectly compliant, sometimes skipping their daily doses. […] The expected effective dose range is from about 0.5 mg per day to about 100 mg per day.

[4] = prior medical use of CEP; cited from earlier work
DHT levels = conditions: 1 mg dose taken daily; cited from earlier work
male pattern baldness = conditions: cited from earlier work

## COc1ccc2cc1Oc1ccc(cc1)C[C@H]1c3c(cc4c(c3Oc3cc5c(cc3OC)CCN(C)[C@@H]5C2)OCO4)CCN1C [Cepharanthine]
[1]
  number of subjects with score Greatly decreased: 0
  number of subjects with score Greatly increased: 1
  number of subjects with score Moderately decreased: 0
  number of subjects with score Moderately increased: 7
  number of subjects with score No change: 3
  number of subjects with score Slightly decreased: 1
  number of subjects with score Slightly increased: 8
[2]
  number of subjects with score Greatly decreased: 0
  number of subjects with score Greatly increased: 0
  number of subjects with score Moderately decreased: 0
  number of subjects with score Moderately increased: 5
  number of subjects with score No change: 4
  number of subjects with score Slightly decreased: 2
  number of subjects with score Slightly increased: 9
[3]
  number of subjects with score Greatly decreased: 0
  number of subjects with score Greatly increased: 1
  number of subjects with score Moderately decreased: 0
  number of subjects with score Moderately increased: 2
  number of subjects with score No change: 3
  number of subjects with score Slightly decreased: 1
  number of subjects with score Slightly increased: 8
Androgenetic alopecia
  effective dose: about 0.5 mg CEP a day
[4]
  safety issues: No safety issues have been observed
  side effects: very rarely reported

## CC(C)(C)NC(=O)[C@H]1CC[C@H]2[C@@H]3CC[C@H]4NC(=O)C=C[C@]4(C)[C@H]3CC[C@]12C [finasteride, Finasteride]
DHT levels
  lowering of DHT levels: ≤ 60%
Male pattern baldness; clinical trials, men
  trial participants with substantial increase in hair growth: 65%
Male pattern baldness; men taking the drug during clinical trials
  men in whom progression of hair loss stopped: 86%
Male pattern baldness; men
  men experiencing transient sexual side effects including erectile and libido difficulties: Less than 2%
